Tests used:
NCI-H460 (Lung) = test: In vitro cytotoxicity, MTT proliferation assay, NCI-H460; type: cell-based, human
Method: (§1) The human pancreatic cancer cell line, HPAC (CRL-2119) was routinely cultured in 1:1 mixture DMEM (Sigma) plus Ham's F12 (Sigma) medium containing HEPES (15 mM), insulin (0.002 mg/ml), transferrin (0.005 mg/ml), hydrocortisone, (40 ng/ml), epidermal growth factor (10 ng/ml). The ovarian cancer cell line CP70 was obtained as a gift from Dr. Gil Mor (Yale University) and cultured in a 1:1 mixture DMEM plus Ham's F12 medium, and SKOV-3 was purchased from ATCC and cultured in McCoy's 5a medium. The breast cancer cell line MDA-MB-468 cultured in Leibovitz's L-15 medium.
(§2) All cultures were supplemented with 10% FCS(CSL, Australia), penicillin (100 U/ml), streptomycin ([…]), L-glutamine (2 mM) and sodium bicarbonate (1.2 g/L), and cultured at 37° C. in a humidified atmosphere of 5% CO2. All remaining cell lines were purchased from ATCC (Maryland, USA) except where noted.
(§3) IC50 values were determined for each cell line. Cells were seeded in 96-well plates at an appropriate cell density as determined from growth kinetics analysis. NFFs were cultured for 5 days and RK-13s for 24 hrs in the absence and presence of the test compounds. Cell proliferation was assessed after the addition of 20 μl of 3-4,5 dimethylthiazol-2,5-diphenyl tetrazolium bromide (MTT, 2.5 mg/ml in PBS, Sigma) for 3-4 hrs at 37° C. according to manufacturer's instructions. IC50 values were calculated from semi-log plots of % of control proliferation on the y-axis against log dose on the x-axis.

LNCaP (Prostate) = test: In vitro cytotoxicity, MTT proliferation assay, LNCaP; type: cell-based, human
Method: as §1, §2, §3

MM96L (Melanoma) = test: In vitro cytotoxicity, MTT proliferation assay, MM96L; type: cell-based, human
Method: as §1, §2, §3

MCF-7 (Breast) = test: In vitro cytotoxicity, MTT proliferation assay, MCF-7; type: cell-based, human; conditions: Breast MCF-7
Method: as §1, §2, §3

[1] = system: human pancreatic cancer cell line, HPAC (CRL-2119); test: In vitro cytotoxicity, MTT proliferation assay, CRL-2119; type: cell-based; conditions: Pancreatic CRL-2119
Method: as §1, §2, §3

[2] = system: breast cancer cell line MDA-MB-468; test: In vitro cytotoxicity, MTT proliferation assay, MDA-MB-468; type: cell-based, human; conditions: Breast MDA-MB-468
Method: as §1, §2, §3

SKOV-3 (Ovarian) = test: In vitro cytotoxicity, MTT proliferation assay, SKOV-3; type: cell-based, human; conditions: Ovarian SKOV-3
Method: as §1, §2, §3

DU145 (Prostate) = test: In vitro cytotoxicity, MTT proliferation assay, DU145; type: cell-based, human
Method: as §1, §2, §3

A2780 (Ovarian) = test: In vitro cytotoxicity, MTT proliferation assay, A2780; type: cell-based, human
Method: as §1, §2, §3

PC3 (Prostate) = test: In vitro cytotoxicity, MTT proliferation assay, PC3; type: cell-based, human
Method: as §1, §2, §3

HCT-15 (Colorectal) = test: In vitro cytotoxicity, MTT proliferation assay, HCT-15; type: cell-based, human; conditions: Colorectal HCT-15
Method: as §1, §2, §3

MM200 (Melanoma) = test: In vitro cytotoxicity, MTT proliferation assay, MM200; type: cell-based, human
Method: as §1, §2, §3

[3] = system: ovarian cancer cell line CP70; test: In vitro cytotoxicity, MTT proliferation assay, CP70; type: cell-based, human
Method: as §1, §2, §3

[4] = system: Neonatal foreskin fibroblasts (NFF); test: Normal cell toxicity, MTT proliferation assay, NFF; type: cell-based, human; conditions: NFF fibroblast, cultured 5 days, MTT
Method: Neonatal foreskin fibroblasts (NFF) were a gift from Dr. Peter Parsons (Queensland Institute of Medical Research). RK-13 (rabbit kidney) cells were obtained from Miller Whalley (Macquarie University). Both cell types were cultured in RPMI supplemented with 10% FCS (CSL, Australia), penicillin (100 U/ml), streptomycin ([…]), L-glutamine (2 mM) and sodium bicarbonate (1.2 g/L), and cultured at 37° C. in a humidified atmosphere of 5% CO2.
as §3
Duplicate cytotoxicity assays against NFF cells were conducted with dehydroequol (DHE), 4,9-dihydroxy-14,15-dimethoxy-12a-(3′,4′-dimethoxyphenyl)-3,10-dimethyl-2,11-dioxa-(1H,12H)-6b,6c,12a,16b-tetrahydronaphtho[1,2-g]chrysene (2) from Example 6.1 and cisplatin.

HT-29 (Colorectal) = test: In vitro cytotoxicity, MTT proliferation assay, HT-29; type: cell-based, human; conditions: Colorectal HT-29
Method: as §1, §2, §3

HTB-138 (Glioma) = test: In vitro cytotoxicity, MTT proliferation assay, HTB-138; type: cell-based, human; conditions: Glioma HTB-138
Method: as §1, §2, §3

PGE2 = PGE2 in murine macrophages (RAW 264.7) stimulated with LPS; type: cell-based, mouse; conditions: RAW 264.7, LPS 50 ng/ml, 16 hrs, dose responsive
Method: (§4) The mouse macrophage cell line RAW 264.7 was cultured in DMEM supplemented with FCS, 2 mM glutamine and 50 U/ml penicillin/streptomycin. Subconfluent cells were detached from the flask by gentle scraping and 24-well plates seeded at 5×10^5 cells per well and allowed to adhere for 1 hr. Cells were then treated either test compounds (in 0.025% DMSO) or vehicle alone, and incubated for 1 hr. LPS 50 ng/ml (LPS —Sigma-Aldrich) was then added. After incubation for 16 hrs, culture media was collected and stored at −80° C. for ecosanoid and cytokine measurements using enzyme immunometric assays (PGE2 and TXB2—Cayman Chemical and TNFα—Becton Dickinson).

TXB2 = TXB2 in murine macrophages (RAW 264.7) stimulated with LPS; type: cell-based, mouse; conditions: RAW 264.7, LPS 50 ng/ml, 16 hrs, dose responsive
Method: as §4

PGE2 synthesis = PGE2 synthesis in human monocytes incubated with LPS; type: cell-based; conditions: LPS 200 ng/mL, 18 hrs, dose responsive
Method: (§5) Human peripheral blood monocytes (from three separate individuals) were isolated from buffy coats by lymphoprep gradient separation of mononuclear cells followed by counter-current centrifugal elutriation (Demasi et al. 2000). The test compounds were dissolved in DMSO and added to fresh monocytes After 30 min, LPS was added to achieve a final concentration of 200 ng/mL. After incubation for 18 hrs at 37° C. in 5% CO2, supernatants were removed and PGE2, TXB2 (the stable hydrolysis product of TXA2) and TNFα production were measured by radioimmunoassay (RIA).

[5] = system: UV irradiation-induced skin oedema; test: Murine model of UV irradiation-induced skin oedema; type: in vivo, female Skh:hr-1 albino mice; conditions: for Change in skin thickness (mean ± SD, ×0.01 mm): dorsal skin fold, topical 0.2 ml of 20 μM at 30 min, 2 h, 4 h
Excerpt: Groups of 4-5 female Skh:hr-1 albino mice were irradiated with 1×3 MEdD (minimal edematous dose) of solar simulated UV radiation (SSUV). Solar-simulated ultraviolet radiation (SSUV) was provided by a planar bank of 6 UVA tube (Hitachi 40W F40T 10/BL, black light) and one UVB tube (Philips TL 40W/12RS) with radiation filtered through a sheet of 0.125 mm cellulose acetate (Eastman Chemical Products, Kingport, Tenn., USA) to give 2.96×10-4W/cm2 UVA and 1.59×10-5W/cm2 UVB. The distance of the UV lamp from the irradiance table surface was approximately 20 cm and temperature was controlled with an electric fan. During irradiation, the cages were rotated below the lights to reduce the variation in radiation intensity in different positions.
Either test compound (0.2 ml of a 20 μM solution) or vehicle (propylene glycol/ethanol/water 1:2:1) was applied to the irradiated dorsal skin at 30 min, 2 h and 4 h post-irradiation. Dorsal skin fold measurements were made with a spring micrometer prior to and at 24 hr and 48 h post-UV exposure. The difference in skin thickness pre- and post-exposure to UVR was calculated for each mouse, and the differences examined between test compound and vehicle control were analysed using an unpaired two-tailed t test.

TXB2 synthesis = TXB2 synthesis in human monocytes incubated with LPS; type: cell-based; conditions: LPS 200 ng/mL, 18 hrs, dose responsive
Method: as §5

splenocytes = test: Murine splenocyte proliferation with mitogens (MTT), 3 day incubation with compound; type: cell-based, Male Skh-1 (hairless) mice
Method: Male Skh-1 (hairless) mice, six weeks old were killed by cervical dislocation. Single cell suspensions were made from their spleens and erythrocytes were lysed in buffer (0.14M NH4Cl, 17 mM Tris, pH 7.2). The remaining splenocytes were cultured in RPMI-1640 (Gibco) supplemented with 10% (v:v) FBS, 200 mM L-glutamine, penicillin/streptomycin and […] 2-mercaptoethanol. […] Samples were analysed after a 3 day incubation at 37° C. in 5% CO2 in air. To assess cell numbers, methylthiazoletetrazolium (MTT) was added to each well, incubated for a further 4 hrs and then colour developed with 0.04N HCl in isopropanol (Mosmann 1983). Plates were read at 570 nm and 630 nm. The compounds were examined several times using different mice. For each assay, the effect of test compound was compared with that of vehicle control, and the results compared using a student's t test (Prism). Statistically significant difference was determined to have occurred when p<0.05.

unstimulated splenocytes = test: Murine splenocytes, 24 hour pre-incubation with compound then mitogenic stimulation; type: cell-based, Male Skh-1 (hairless) mice; conditions: 10 μM
Method: Male Skh-1 (hairless) mice, six weeks old were killed by cervical dislocation. Single cell suspensions were made from their spleens and erythrocytes were lysed in buffer (0.14M NH4Cl, 17 mM Tris, pH 7.2). The remaining splenocytes were cultured in RPMI-1640 (Gibco) supplemented with 10% (v:v) FBS, 200 mM L-glutamine, penicillin/streptomycin and […] 2-mercaptoethanol. Splenocytes were added to triplicate wells containing either concanavalin A (ConA, Sigma-Aldrich—0.4 μg/well), lipopolysaccharide (LPS, Sigma-Aldrich—1 μg/well) or no mitogen, as well as 10 μM of either Compound 1 or Compound 2 in DMSO, or DMSO alone. Samples were analysed after a 3 day incubation at 37° C. in 5% CO2 in air. To assess cell numbers, methylthiazoletetrazolium (MTT) was added to each well, incubated for a further 4 hrs and then colour developed with 0.04N HCl in isopropanol (Mosmann 1983). Plates were read at 570 nm and 630 nm. The compounds were examined several times using different mice. For each assay, the effect of test compound was compared with that of vehicle control, and the results compared using a student's t test (Prism). Statistically significant difference was determined to have occurred when p<0.05.
Another assay examined the effect pre-incubating unstimulated splenocytes with test compounds at 10 μM for 24 hours, removing the compounds and then assessing their ability to respond to mitogenic stimulation as described for the previous assay. Cell numbers were assessed after the 24 hr pre-incubation using MTT, and equal numbers of cells/well plated into 96 well plates as usual.

TNFα synthesis = TNFα synthesis in human monocytes incubated with LPS; type: cell-based; conditions: LPS 200 ng/mL, 18 hrs
Method: as §5

## N.N.[Cl][Pt][Cl] [Cisplatin, cis-diamminedichloroplatinum]
NCI-H460 (Lung)
  IC50: 22.3 µM
LNCaP (Prostate)
  IC50: > 10 µM
MM96L (Melanoma)
  IC50: 4.6 µM
MCF-7 (Breast)
  IC50: 3.69 µM
[1]
  IC50: 9.36 µM
[2]
  IC50: 0.58 µM
SKOV-3 (Ovarian)
  IC50: 5.4 µM
DU145 (Prostate)
  IC50: 2.07 µM
A2780 (Ovarian)
  IC50: 2.1 µM
PC3 (Prostate)
  IC50: 2.11 µM
HCT-15 (Colorectal)
  IC50: 130 ± 39 µM
MM200 (Melanoma)
  IC50: 8.82 µM
[3]
  IC50: 10.3 µM
[4]
  IC50: 9.85 ± 5 µM
HT-29 (Colorectal)
  IC50: 22.7 ± 35 µM
HTB-138 (Glioma)
  IC50: 42.3 µM

## COc1ccc(C23COc4cc(O)ccc4C2C2c4ccc(O)cc4OCC2c2cc(OC)c(OC)cc23)cc1OC (stereo not shown) [Cpd. 1, 4,9-Dihydroxy-14,15-dimethoxy-12a-(3′,4′-dimethoxyphenyl)-2,11-dioxa-(1H,12H)-6b,6c,12a,16b-tetrahydronaphtho[1,2-g]chrysene]
PGE2
  effect on PGE2: induced
TXB2
  effect on TXB2: inhibited
PGE2 synthesis
  effect on PGE2 synthesis: induced
[5]; 24 hrs post-irradiation
  inhibition of skin oedema: significantly inhibited
[5]; 24 hrs post-irradiation, vehicle 78 ± 23
  Change in skin thickness (mean ± SD, ×0.01 mm): 51 ± 14 ×0.01 mm
[5]; 48 hrs post-irradiation, vehicle 147 ± 37
  Change in skin thickness (mean ± SD, ×0.01 mm): 117 ± 20 ×0.01 mm
TXB2 synthesis
  effect on TXB2 synthesis: inhibited
splenocytes; 10 μM, LPS, 3 day incubation
  effect on B cell proliferation: no effect
splenocytes; 10 μM, no mitogen, significant in 5/6 assays
  enhancement of proliferation of unstimulated splenocytes: 25-33%
splenocytes; Mus musculus, Splenocyte, 72 h, 10 μM, ConA, 3 day incubation, significant in 4/6 assays, read-out: inhibition of T cell proliferation
  inhibition at 10 µM: 14 to 19%
splenocytes; higher concentrations (than 10 μM), regardless of mitogenic stimulation
  proliferation compared with vehicle control: reduced proliferation
Unstimulated splenocytes
  Splenocyte viability following three days' culture in the absence of mitogen: not affected
  reduction in cell numbers compared with vehicle alone: 73%
Unstimulated splenocytes; compound removed
  proliferative response to ConA after pre-incubation: no effect
TNFα synthesis
  effect on induction of TNFα: inhibited

From patent US7700644B2, “Isoflavonoid dimers” (Novogen Research Pty Ltd, priority 2005, dated 2010)
